One series concerns healthy mice. The note with it: cited from earlier work.
For the next series, the system named is male Wistar rats. Briefly: Object Location Task (OLT), learning and memory improvement in vivo. Further details: species or system rat. The note with it: for memory performance, discrimination index (d2), compared with chance level (d2=0): one-sample t-test; for memory performance, discrimination index (d2), compared to the vehicle condition: one-way ANOVA, LSD t-tests; for dose with the most prominent effect in the memory test: object location task, rats, dose does not decrease blood pressure. The text has this:
Therefore, the well accepted Object Location Task (OLT) in rats was used. This task allows the assessment of acquisition, consolidation and retrieval of (spatial) information into memory, and is derived from the Object Recognition Task (ORT) (e.g. Ennaceur and Delacour, 1988; Prickaerts et al., 1997).
All experimental procedures were approved by the local ethical committee of Maastricht University for animal experiments and met governmental guidelines. […] The animals were housed individually in a standard IVC cage system on sawdust bedding in an air-conditioned room (about 20° C.). They were kept under a reversed 12/12 h light/dark cycle (lights on from 19.00 to 07.00) and had free access to food and water. Rats were housed and tested in the same room. A radio, which was playing softly, provided background noise in the room. All testing was done between 09.00 and 17.00.
The test compounds were freshly prepared on every experimental day and were dissolved in 0.5% Tylose solution (98% of the end volume) with 2% Tween80.
The order of the treatments was balanced to prevent the data from being distorted by potential object- and side-preferences of the animals.
The Object Location Task (OLT) was derived from the Object Recognition Test (ORT) (Ennaceur and Delacour, 1988). The OLT is a one-trial learning task which allows the assessment of spatial memory, and was performed as described elsewhere (Bruno et al., 2011, Vanmierlo et al., 2011). In the first (learning) trial a rat is put into an arena in which two identical objects are placed. After a certain delay, the rat is given a second trial. In this second trial the rat is again placed in the same arena but now one of the objects has been moved to a different position within the area. In other words, a new spatial arrangement is being used.
The apparatus consisted of a circular arena, 83 cm in diameter. The back-half of the 40 cm high arena wall was made of gray polyvinyl chloride, the front-half consisted of transparent polyvinyl chloride. The light intensity was equal in the different parts of the apparatus, as fluorescent red tubes provided a constant illumination of about 20 lux on the floor of the apparatus. In the first (learning) trial (T1), two objects were placed in a symmetrical position on a distance of about 10 cm from the wall of the left- and the right-side of the arena. In the second (test) trial (T2), one object is moved to a new location which is about 20 cm higher or lower than the original positon. Four different sets of objects were used. The different objects were: 1) a cone consisting of a gray polyvinyl chloride base (maximal diameter 18 cm) with a collar on top made of aluminum (total height 16 cm), 2) a standard 1 L brown glass bottle (diameter 10 cm, height 22 cm) filled with water, 3) a massive metal cube (10.0×5.0×7.5 cm) with two holes (diameter 1.9 cm), and 4) a solid aluminum cube with a tapering top (13.0×8.0×8.0 cm). Rats were unable to displace the objects.
A testing session consisted of two trials. The duration of each trial was 3 min. During the first trial (T1) the apparatus contained two identical objects. Rats were placed in the apparatus facing the wall at the middle of the front (transparent) segment. After the first exploration period the rat was put back in its home cage. Subsequently, after a 24 h delay interval, the rat was put in the apparatus for the second trial (T2). The total time an animal spent exploring each object during T1 and T2 was recorded manually with a personal computer.
Exploration was defined as follows: directing the nose to the object at a distance of no more than 2 cm and/or touching the object with the nose. Sitting on the object was not considered as exploratory behavior. A minimal amount of object interaction is required in order to achieve reliable object discrimination, therefore rats that explore less than 7 s in T1 and/or 9 s in T2 should be excluded from the analyses (Akkerman et al., 2012).

A further series relates to normotensive Wistar rats. Briefly: Measurement of arterial blood pressure in vivo by radiotelemetry in conscious rats. Set-up: species or system rat. The note with it: over 24 hours; for effect on mean arterial blood pressure (MAP) over the dose range: all tested doses compared to vehicle. On the procedure: Adult normotensive Wistar rats (Wistar HSD CPB:WU) with a body weight of 250 to 350 g were used for these experimental studies. All animals were housed in individual cages at 22-24° C. ambient temperature and maintained on a 12-hour light/dark cycle with free access to standard laboratory rat chow and water ad libitum. All animal experiments were done in accordance to the current national legislation (German protection of animals act and the EU directives on the protection of animals used for scientific purposes). All performed studies were approved by the regional regulatory authority (LANUV NRW in Germany) and by the institutional animal care and use committee of Bayer AG.
Blood pressure is monitored in freely moving conscious rats by radiotelemetry by a telemetric system (DSI Data Science International, MN, USA). A transmitters (TAI1PA-C40) is implanted in the abdomen of the rat during deep anaesthesia. After recovery of the rats, telemetric signals are registered by a receiver plate (RA1010) and compiled by a computer-based acquisition software (Dataquest A.R.T 4.1 for Windows).
After shaving the abdominal wall of the rat, a midline abdominal incision was made, and the fluid-filled sensor catheter was inserted upstream into the exposed descending aorta between the iliac bifurcation and the renal arteries. According to the DSI guidelines the tip of the telemetric catheter was located just caudal to the renal arteries and secured by tissue adhesive. The transmitter body was affixed to the inner peritoneal wall before closure of abdomen. A two-layer closure of the abdominal incision was used, with individual suturing of the peritoneum and the muscle wall followed by closure of the outer skin. Surgery was performed under aseptic conditions. For postsurgical protection against infections and pain a single dosage of an antibiotic (Oxytetracyclin® 10%, 60 mg/kg s.c., 0.06 ml/100 g body weight, Beta-Pharma GmbH & Co, Germany) and analgesic were injected (Rimadyl®, 4 mg/kg s.c., Pfizer, Germany).
After activation of the implanted transmitters, A.R.T., an on-line data acquisition system, samples data and converts telemetric pressure signals to mm Hg. A barometric pressure reference allows for relation of absolute pressure (relative to vacuum) to ambient atmospheric pressure. Data acquisition software was predefined to sample hemodynamic data for 10-s intervals every 5 minutes. Data collection to file was started 2 hours (T=−2 hours) before drug administration (T=0 hours) and finished after completion of 24 hours (T=24 hours).
Data are expressed as % of baseline values. The baseline value for each animal was calculated and represents the mean blood pressure of the 2 hour period (T=−2 hours to T=0 hours) before the administration of drug or vehicle. For further analysis data were grouped to provide mean for every 0.5 hours. The means of all values obtained for each individual during the period indicated were averaged for each day. Groups were compared by one-way ANOVA with Dunnet's test.
All animals were treated with single oral doses of vehicle or the compound in different dosages (e.g. 0.3, 1.0, 3.0, or 10.0 mg/kg). Application volume was 2 ml/kg body weight. The experiment started at 7:00 a.m. (T=−2 hours), vehicle or drug administration took place at 9.00 a.m. (=0 hours) and registration period was 24 hours. For analysis, data were grouped to provide half-hourly averages.

The mark [1] stands for this setting: 0.1 mg/kg p.o. 30 min before T1, 24 h interval.
Setting [2] is: 0.3 mg/kg p.o. 30 min before T1, 24 h interval.
The mark [3] stands for this setting: 1.0 mg/kg p.o. 30 min before T1, 24 h interval.

The structures appear in SMILES notation. Read-outs that look alike come from different tables or passages of the source.

For the compound `COC(=O)N(C)c1c(N)nc(-c2nn(Cc3ccccc3F)c3ncccc23)nc1N` [Riociguat], the spatial memory entry is “no significant effect” in the series with healthy mice (higher doses 0.1-0.3 mg/kg), “no significant effect” in the series on healthy mice (lower dose 0.01 mg/kg) and “able to enhance spatial memory” in the series on healthy mice (single dose of 0.03 mg/kg).
Turning to `C[C@H]([C@H](C(=O)Nc1cc(C(CC(=O)O)C2CC2)ccc1Cl)c1ccc(Cl)cc1)C(F)(F)F` (stereo partly drawn) [compound of formula (1), 3-(4-chloro-3-{[(2S,3R)-2-(4-chlorophenyl)-4,4,4-trifluoro-3-methylbutanoyl]amino}phenyl)-3-cyclopropylpropanoic acid], the “memory performance, discrimination index (d2), compared with chance level (d2=0)” value in the series with male Wistar rats (0.03 mg/kg p.o. 30 min before T1, 24 h interval) is “improved memory performance”; in the series with male Wistar rats (setting [1]) it was “improved memory performance”; in the series with male Wistar rats (setting [2]), “improved memory performance”; with male Wistar rats (setting [3]), “improved memory performance”. Moreover, the “memory performance, discrimination index (d2), compared to the vehicle condition” value in the series with male Wistar rats (setting [1]), in the series on male Wistar rats (setting [2]) and with male Wistar rats (setting [3]) was “significant higher memory performance” each time. The “dose with the most prominent effect in the memory test” value with male Wistar rats was found to be 0.3 mg/kg. Moreover, the “mean arterial blood pressure (MAP) compared to vehicle” value is reported as “no significant decrease” in the series with normotensive Wistar rats (1.0 mg/kg single oral dose), “no significant decrease” in the series with normotensive Wistar rats (3.0 mg/kg single oral dose) and “significantly lowered” in the series on normotensive Wistar rats (10.0 mg/kg single oral dose). In the series on normotensive Wistar rats, the “effect on mean arterial blood pressure (MAP) over the dose range” value was “dose-dependent effect”.
As to `O=C(O)CCCCN(CCc1cc(F)ccc1OCc1ccc(-c2ccc(C(F)(F)F)cc2)cc1)Cc1ccc(C(=O)O)cc1` [compound of formula (2), 4-({(4-carboxybutyl)[2-(5-fluoro-2-{[4′-(trifluoromethyl)[1,1′-biphenyl]-4-yl]methoxy}phenyl)ethyl]amino}methyl)benzoic acid], the “memory performance, discrimination index (d2), compared with chance level (d2=0)” value in the series with male Wistar rats (setting [1]), with male Wistar rats (setting [2]) and with male Wistar rats (setting [3]) was “improved memory performance” in each case. In addition, the “memory performance, discrimination index (d2), compared to the vehicle condition” value in the series on male Wistar rats (setting [2]) and in the series with male Wistar rats (setting [3]) was “significant higher memory performance” each time.
Regarding `COC(=O)Nc1c(N)nc(-c2nn(Cc3ccccc3F)c3ncc(F)cc23)nc1N` [compound of formula (5), methyl{4,6-diamino-2-[5-fluoro-1-(2-fluorobenzyl)-1H-pyrazolo[3,4-b]pyridine-3-yl]pyrimidin-5-yl}carbamate], the “memory performance, discrimination index (d2), compared with chance level (d2=0)” value with male Wistar rats (setting [1]), in the series with male Wistar rats (setting [2]) and in the series on male Wistar rats (setting [3]) was “improved memory performance” throughout. The “memory performance, discrimination index (d2), compared to the vehicle condition” value with male Wistar rats (setting [2]) and with male Wistar rats (setting [3]) was “significant higher memory performance” each time. Further, the “dose with the most prominent effect in the memory test” value in the series with male Wistar rats is reported as 0.3 mg/kg. Also, the entries for the “mean arterial blood pressure (MAP) compared to vehicle” value in the series on normotensive Wistar rats (0.3 mg/kg single oral dose), in the series with normotensive Wistar rats (1.0 mg/kg single oral dose) and with normotensive Wistar rats (3.0 mg/kg single oral dose) were “no significant decrease”, “significantly lowered” and “significantly lowered”, respectively. The “effect on mean arterial blood pressure (MAP) over the dose range” value in the series on normotensive Wistar rats is reported as “dose-dependent effect”.

The values are drawn from patent US20210052528A1, “THE USE OF SGC ACTIVATORS AND SGC STIMULATORS FOR THE TREATMENT OF COGNITIVE IMPAIRMENT” (Bayer Aktiengesellschaft, priority 2018, published 2021).
